Results as given in paper PMC10905588 (ACS Omega, 2024).
Where two headings read alike, the source gives them in different places. Marks after values point to notes of the source that are not given here.

Tests used:
[1] = tested on: STZ-induced diabetic rat model; details: during the course of 0–300 min; cited from earlier work
[2] = body weight of STZ-induced diabetic rats; details: WA1-WA3 12 mg/kg; mean ± SEM, n = 8
[3] = tested on: streptozotocin (STZ)-induced diabetic rat model; assay: kidney and liver function tests in STZ-induced diabetic rats; type: in vivo, Wistar rats; details: serum, 28th day; 12 mg/kg oral (glibenclamide 0.5 mg/kg); mean ± SEM, n = 8
[4] = acute toxicity study; type: in vivo
[5] = target: T1, α-amylase (Homo sapiens, UniProt P04746); assay: in-vitro α-amylase inhibitory activity; type: biochemical
T1 sequence (P04746 16-511): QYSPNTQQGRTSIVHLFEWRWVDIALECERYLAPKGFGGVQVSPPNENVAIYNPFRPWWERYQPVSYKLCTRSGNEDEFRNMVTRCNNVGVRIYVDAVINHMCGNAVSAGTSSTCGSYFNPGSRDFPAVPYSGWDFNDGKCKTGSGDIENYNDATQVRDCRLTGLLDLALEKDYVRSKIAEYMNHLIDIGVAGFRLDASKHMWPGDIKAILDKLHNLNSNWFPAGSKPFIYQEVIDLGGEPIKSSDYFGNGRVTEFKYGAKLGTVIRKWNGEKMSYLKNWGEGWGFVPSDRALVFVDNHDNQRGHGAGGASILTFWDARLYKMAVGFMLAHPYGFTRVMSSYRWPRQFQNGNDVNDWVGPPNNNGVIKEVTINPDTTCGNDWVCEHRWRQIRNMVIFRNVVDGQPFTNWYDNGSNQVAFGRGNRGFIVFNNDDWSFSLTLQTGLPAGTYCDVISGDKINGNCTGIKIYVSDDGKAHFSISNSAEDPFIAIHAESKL

[6] = tested on: streptozotocin (STZ)-induced diabetic rat model; assay: blood glucose level in STZ-induced diabetic rats; details: WA1-WA3 12 mg/kg oral, glibenclamide 0.5 mg/kg; mean ± SEM, n = 8
[7] = tested on: streptozotocin (STZ)-induced diabetic rat model; assay: glycated hemoglobin; details: for HbA1c (%): Table 4: dose printed 6 mg/kg for WA1-WA3, 0.5 mg/kg glibenclamide, n = 8; for HbA1c level: text: WA1, WA2, WA3 at 12 mg/kg, diabetic control 10.12%
[8] = target: T2, α-glucosidase (Saccharomyces cerevisiae, UniProt P53341); assay: in-vitro α-glucosidase inhibitory activity; type: biochemical
[9] = tested on: streptozotocin (STZ)-induced diabetic rat model; assay: serum lipid profile in STZ-induced diabetic rats; type: in vivo, Wistar rats; details: 28th day, 12 mg/kg oral (glibenclamide 0.5 mg/kg), mean ± SEM, n = 8
[10] = target: T2, α-glucosidase; details: read-out: IC50 α-glucosidase; cited from earlier work
[11] = target: T1, α-amylase; details: read-out: IC50 α-amylase; cited from earlier work

T2 sequence (P53341 whole entry): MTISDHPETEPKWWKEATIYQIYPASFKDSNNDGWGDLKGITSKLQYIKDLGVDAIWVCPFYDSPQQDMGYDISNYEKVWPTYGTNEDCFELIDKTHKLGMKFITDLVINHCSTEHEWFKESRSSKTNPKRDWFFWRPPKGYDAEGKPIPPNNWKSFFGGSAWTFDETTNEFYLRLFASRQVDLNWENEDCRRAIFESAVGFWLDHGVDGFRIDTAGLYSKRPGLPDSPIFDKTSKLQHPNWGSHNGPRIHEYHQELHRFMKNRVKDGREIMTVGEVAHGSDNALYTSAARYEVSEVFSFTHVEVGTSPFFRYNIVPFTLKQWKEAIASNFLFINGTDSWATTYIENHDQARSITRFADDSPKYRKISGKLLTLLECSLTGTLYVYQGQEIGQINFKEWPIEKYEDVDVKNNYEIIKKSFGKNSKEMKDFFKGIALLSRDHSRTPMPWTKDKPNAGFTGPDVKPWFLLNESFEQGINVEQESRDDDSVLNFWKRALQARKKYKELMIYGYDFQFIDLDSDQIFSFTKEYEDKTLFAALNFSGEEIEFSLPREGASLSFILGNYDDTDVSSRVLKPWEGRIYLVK

| Compound | lowering of blood glucose levels [1] | body weight, 1st day [2] | body weight, 7th day [2] | body weight, 14th day [2] | body weight, 21st day [2] | body weight, 28th day [2] | kidney: creatinine [3] | kidney: urea [3] | liver: ALP [3] | liver: ALT [3] | liver: AST [3] | blood glucose level, day 1st [6] | blood glucose level, day 7th [6] | blood glucose level, day 14th [6] | blood glucose level, day 21st [6] | blood glucose level, day 28th [6] | HbA1c (%) [7] | HbA1c level [7] | HDL [9] | LDL [9] | other results |
| --- | --- | --- | --- | --- | --- | --- | --- | --- | --- | --- | --- | --- | --- | --- | --- | --- | --- | --- | --- | --- | --- |
| COc1ccc2c(c1)[nH]c1c3c(c(C)cc12)OC(C)(C)C=C3 [O-methylmurrayamine A] | roughly 24.6% |  |  |  |  |  |  |  |  |  |  |  |  |  |  |  |  |  |  |  |  |
| COc1ccc2cc3[n+](cc2c1OC)CCc1cc2c(cc1-3)OCO2 [WA1, berberine] |  | 183.77 ± 5.01 | 180.33 ± 4.91 | 178.16 ± 4.96 | 174.80 ± 4.77 | 170.88 ± 4.84 | 1.07 ± 0.06 mg/dL | 47.30 ± 1.51 mg/dL | 145.69 ± 3.78 U/L | 88.30 ± 2.45 U/L | 71.16 ± 1.79 U/L | 460.11 ± 5.17 mg/dL | 376.70 ± 4.98 mg/dL | 268.21 ± 5.79 mg/dL | 176.33 ± 4.69 mg/dL | 133.01 ± 5.18 mg/dL | 7.55*** % | 7.55% | 35.11 ± 1.66 mg/dL | 56.33 ± 2.79 mg/dL | nontoxic up to (acute toxicity profile) ([4]; oral doses 5-500 mg/kg b.w., observed up to 14 days): up to 500 mg/kg; behavior in acute toxicity profile ([4]; up to 500 mg/kg (b.w.)): normal behavior; IC50 [5]: 200 µM; IC50 [8]: 569 µM; TC (total cholesterol) [9]: 92.67 ± 4.81 mg/dL; TG (triglycerides) [9]: 112.17 ± 3.10 mg/dL |
| COc1cc2[nH]c3c4c(c(C)cc3c2cc1OC)OC(C)(C)C=C4 [koenidine] | ~22.5% |  |  |  |  |  |  |  |  |  |  |  |  |  |  |  |  |  |  |  |  |
| CC(C)=CCCC1(C)C=Cc2c(c(C)cc3c2[nH]c2ccccc23)O1 (stereo not drawn) [mahanimbine] |  |  |  |  |  |  |  |  |  |  |  |  |  |  |  |  |  |  |  |  | IC50 [10]: 299 µM; IC50 [11]: 250 µM |
| COc1ccc(Cl)cc1C(=O)NCCc1ccc(S(=O)(=O)NC(=O)NC2CCCCC2)cc1 [glibenclamide, reference compound] |  | 184.11 ± 5.15 | 183.91 ± 4.87 | 189.16 ± 5.13 | 187.63 ± 4.86 | 194.37 ± 4.90 | 1.01 ± 0.07 mg/dL | 40.17 ± 1.90 mg/dL | 133.67 ± 3.71 U/L | 71.43 ± 2.13 U/L | 55.03 ± 1.94 U/L | 458.12 ± 6.15 mg/dL | 349.36 ± 4.98 mg/dL | 248.70 ± 6.96 mg/dL | 138.49 ± 4.86 mg/dL | 102.19 ± 5.11 mg/dL | 6.91*** % | 6.91% | 39.64 ± 1.51 mg/dL | 40.17 ± 1.80 mg/dL | TC (total cholesterol) [9]: 84.31 ± 4.95 mg/dL; TG (triglycerides) [9]: 102.97 ± 3.69 mg/dL |
| CN(C)C(=N)N=C(N)N [metformin, reference compound] | 25.9% |  |  |  |  |  |  |  |  |  |  |  |  |  |  |  |  |  |  |  |  |
